{
  "source": "paper PMC3877285",
  "about": "“A New Strategy for Enhancing the Oral Bioavailability of Drugs with Poor Water-Solubility and Low Liposolubility Based on Phospholipid Complex and Supersaturated SEDDS” (PLoS ONE, 2013)",
  "key": {"[1]": {"set-up": "method as in PMID 16269273", "conditions": "cited from earlier work"}, "In vitro lipolysis study": {"assay": "In vitro lipolysis study", "assay_type": "in vitro ADME", "conditions": "lipolysis medium pH 6.5, pancreatic lipase, 37°C, 20 mg scutellarin equivalent, n = 3", "method": "In vitro lipolysis studies were performed as previously described, [22] with minor modifications. Briefly, lipolysis medium was prepared in advance, containing 5 mM bile salt, 2 mM trizma maleate buffer, 1.25 mM phosphatidyl choline, and 150 mM sodium chloride, and was adjusted to pH 6.5 with 0.1 M NaOH. Then according to the single-dosage of commercial oral solution detailed as 70 mg scutellarin administrated into 900 mL GI medium, scutellarin powder, SPC, conventional SEDDS and super-SEDDS with a dose of 20 mg (equivalent to scutellarin) were dispersed in 250 mL warmed lipolysis medium (37°C), with a stirring rate of 100 rpm. After that, lipolysis was initiated by adding 50 mL freshly prepared pancreatic lipase solution (2000 TBU/mL, pH 6.5, 37°C), then controlled by constantly pumping 0.15 M CaCl2 with a rate of 0.25 mL/min. Over the lipolysis period, pH value was maintained at 6.5 by a pH-stat device (902 Titrando, Metrohm, Switzerland). At pre-determined time intervals (5, 10, 20, 30, 45, 60, 90, 120 min), 5 mL digested medium was taken and filtered by 0.45 µm polypropylene membrane. The filtered samples were immediately diluted 10 times with acetonitrile to stop lipolysis and induce protein precipitation. At last, the diluted samples were centrifuged at 10,000 rpm for 10 min (Centrifuge 5810R, Eppendorf, Germany), and subsequently analyzed by HPLC (as mentioned later)."}, "[2]": {"assay": "Ex vivo intestinal absorption, everted intestinal sac", "assay_type": "in vitro ADME, Sprague-Dawley (SD) rats", "conditions": "everted rat jejunum sac, 50 µg/mL scutellarin", "method": "An everted intestinal sac experiment, modified according to the method previously described, was adopted to evaluate the ex vivo intestinal absorption of scutellarin. Kreb-Ringer’s (K–R) solution, containing 342.0 mM NaCl, 6.7 mM KCl, 5.9 mM CaCl2·2H2O, 5.3 mM MgCl2, 59.5 mM NaHCO3, 2.1 mM NaH2PO4 and 5.5 mM glucose, was prepared in advance. Half was cooled in 4°C refrigerator and the rest was warmed in a 37°C water bath. Scutellarin powder, SPC, conventional SEDDS and Super-SEDDS were dispersed in warmed K–R solution with a concentration of 50 µg/mL scutellarin, approximate to the lowest released concentration of drug during the lipolysis test. Male Sprague-Dawley (SD) rats were fasted overnight and then anesthetized with an intraperitoneal injection of chloral hydrated (10%, w/v) at a dose of 0.4 mL per 100 g. After dissection of the abdominal wall, the jejunum (21 cm from the pylorus) was carefully isolated without any mesentery, clipped into segments of 10 cm, and quickly rinsed in cooled K–R solution. […] After the tests, the length and width of the intestinal segments were measured for the calculation of uptake amount per unit area."}, "[3]": {"assay": "In vivo pharmacokinetics after oral dosing", "conditions": "male, Sprague-Dawley, rat, plasma, 40 mg/kg equivalent to scutellarin, SD rats, n = 5, mean ± SD", "method": "20 male SD rats (300∼350 g) were fasted but allowed free access to water for 12 h, then divided randomly into 4 groups for the pharmacokinetics experiments of scutellarin powder, SPC, conventional SEDDS and Super-SEDDS. In order to avoid failure detection of plasma drug, the various formulations were orally administrated to rats at a dose of 40 mg/kg, according to the highest dosage of commercial oral solution, with a ceiling volume of 10 mL/kg when dispersed by purified water. The blood samples of 0.5 mL were collected in a 1.5 mL heparin treated EP tube from the orbital venous prior to the dose and at 0.5, 1, 2, 3, 4, 5, 6, 8, 10, 12, 24 and 36 h after the dose. The plasma was immediately isolated from whole blood by centrifugation (4000 rpm, 10 min) at room temperature and then stored in a −80°C freezer until analysis.\nAn HPLC analysis system (HP 1100 series, Agilent Technologies, Wilmington, Germany) of a quaternary pump, an autosampler and a UV detector with an ODS-C18 column (250 mm×4.6 mm i.d., Sepax Technologies Inc., Delaware, USA), was used for the determination of scutellarin. The mobile phase was a mixture of methanol, acetonitrile and 50 mM KH2PO4, at a ratio of 22∶15:63 (v/v/v), with pH of 2.5 adjusted by phosphoric acid. The detection was carried out at a wavelength of 335 nm, with a flow rate of 1.0 mL/min at room temperature.\n200 µL of thawed plasma was removed to a 10 mL EP tube. 50 µL of internal standard working solution (20 µg/mL of rutin in methanol) was added and subsequently acidified by 100 µL of phosphoric acid (10 wt %) for 10 min. Then, 3 mL of ethyl acetate was infused for extracting scutellarin from plasma. After 30 min vortex, samples were centrifuged at 4000 rpm for 10 min, and the isolated supernatant was concentrated under nitrogen gas flow in bath of 40°C. Before HPLC detection, it needed to be re-dissolved by 100 µL of HPLC mobile phase and centrifuged at 10,000 rpm for 5 min. The whole analytical methodology including plasma treatment and HPLC detection was validated by accuracy and precision (see Table 2) as previously described.\nThe plasma data was analyzed in batches by DAS 2.0 (Mathematical Pharmacology Professional Committee of China, Shanghai, China). Peak plasma concentration (Cmax) and the time to reach Cmax (Tmax) were based on measured values. Area under the curve (AUC0-t) was calculated via a trapezoidal area method. […] All values were expressed as the mean ± standard deviation. The significant differences between each group were determined by one way analysis of variance (ANOVA) using the statistical package for social sciences software (SPSS® version 17.0, SPSS Inc., Shanghai, China), with the significance defined as p<0.05 and high significance as p<0.001."}},
  "note": "“And” between values parts separate entries of the source, which are not always exact repeats. Equal entries are not always repeated.",
  "data": [
    {"compound": "O=C(O)[C@H]1O[C@@H](Oc2cc3oc(-c4ccc(O)cc4)cc(=O)c3c(O)c2O)[C@H](O)[C@@H](O)[C@@H]1O", "note": "[Scutellarin powder, Scutellarin]", "values": [
      {"measurement": "pKa", "setting": "[1]", "result": 3.29},
      {"measurement": "cumulative dissolution percentage", "setting": "In vitro lipolysis study", "result": "70% and 70.1±3.2%"},
      {"measurement": "intestinal absorption (cumulative)", "setting": "[2]", "result": 0.04, "unit": "µg/cm^2"},
      {"measurement": "AUC(0-t)", "setting": "[3]", "result": "2670 ± 404", "unit": "ng·h/mL"},
      {"measurement": "Cmax", "setting": "[3]", "result": "178 ± 35", "unit": "ng/mL"},
      {"measurement": "Tmax", "setting": "[3]", "result": "5.2 ± 0.8", "unit": "h"},
      {"measurement": "half-life", "setting": "[3]; read-out: T1/2z (converted)", "result": "34.8 ± 22.8", "unit": "h"}
    ]}
  ]
}
